Test [1] has as its system human platelets (platelet-rich plasma). Briefly: In vitro inhibition of platelet aggregation in human (ADP-induced, PRP). The class given is cell-based. The note with it: ADP final concentration 5 μM, read-out: Platelet aggregation inhibitory activity in human, IC50. On the procedure:
2. Inhibition of platelet aggregation in human
Blood was collected from healthy human volunteers with an injection syringe and mixed one volume of 3.8% of sodium citrate as an anticoagulant to 9 volumes of the blood. Successively, the obtained blood mixture was subjected to centrifugation at 120×g for 15 minutes at room temperature to obtain platelet-rich plasma (PRP). An aliquot of PRP was further subjected to centrifugation at 1,200×g for 20 minutes to obtain platelet-poor plasma (PPP). Numbers of the platelet were measured with an automatic platelet counter: Sysmex PL-100 (manufactured by Toa Iyodenshi Co.) and PRP was diluted with PPP so as to adjust a platelet concentration to be about 250,000 particles/μl. Platelet aggregation was measured by the following procedure with a 6 channel aggregometer: HEMA TRACER 1 (manufactured by NKK Co.)
After incubation of 240 μl of PRP at 37° C. for 2 minutes, 30 μl of the solvent of specimen as a control or the specimen in various concentrations was added to PRP. Further 2 minutes later, 30 μl of adenosine diphosphate (final concentration: 5 μM) was added to induce platelet aggregation. An inhibition percentage was obtained by comparing the maximum aggregation of the specimen drug group with that of control. […]

In test [2] the target is T1, human fibrinogen receptor GP IIb/IIIa (Homo sapiens, UniProt P05106+P08514).
T1 construct: Concentrated and lyophilized human platelet (20 vial) (Organon Teknika Co.) was lysed; tissue Organon Teknika Co; host or cells: human platelets (lyophilized), lysed in Triton X-100
Briefly: Binding inhibition of biotinylated fibrinogen to GP IIb/IIIa. The note with it: purified human GP IIb/IIIa, read-out: Inhibition of GPIIb/IIIa . Fibrinogen Binding, IC50. On the procedure: Experiment for binding inhibition between GP IIb/IIIa and fibrinogen
1. Purification of human fibrinogen receptor GP IIb/IIIa
Concentrated and lyophilized human platelet (20 vial) (Organon Teknika Co.) was lysed in an antienzymic solution (80 ml) (1% Triton X-100, 10 mM Tris-HCl, 150 mM NaCl, 1 mM CaCl2, 10 μM leupeptin, 1 mM phenylmethane sulfonyl fluoride, pH 7.4), allowed to incubate for an hour at 4° C., and centrifuged at 30,000×g for 15 minutes to recover the supernatant solution containing 150 mg of protein. The GP IIb/IIIa was purified according to the method of Phillips et al. [Methods in Enzymology Vol. 215, (J. J. Hawigar, Eds.), 244-263, Acedemic Press Inc., San Diego].
2. Preparation of biotinylated fibrinogen
Human fibrinogen Grade L (KABI Co.) was purified by using Shepharose CL-6B and Lysine-Sepharose. Thus purified human fibrinogen (2.3 mg/ml) was dialyzed for 3 hours with 0.1M aqueous sodium bicarbonate solution at room temperature and successively diluted to 1 mg/ml. To the solution (4.5 ml) obtained, NHC-LC-Biotin (2 mg) (Pierce Co.) was added and reacted for 1 hour at room temperature to biotinylate fibrinogen. The reaction mixture was dialyzed at 4° C. for 24 hours with TBS (20 mM Tris-HCl, 150 mM NaCl, 1 mM CaCl2, 1 mM MgCl2, pH 7.4) to obtain biotinylated fibrinogen.
3. Binding inhibition of biotinylated fibrinogen to GP IIb/IIIa
Specimen drugs were dissolved and diluted with TBS containing 1% BSA. To each solution, an equal volume of biotinylated fibrinogen (2 μg/ml) dissolved in TBS containing 1% BSA, was added. The inhibition percentage of specimen drugs were measured by the method of Mori et al. [Jpn. J. Thromb. Hemost., 2, 323-399 (1991) with small modification].
Purified GP IIb/IIIa was diluted to 1.5 μg/ml in TBS containing 0.0005% of Triton X-100. The GP IIb/IIIa solution was added to a 96 well microplate (E.I.A/R.I.A. Plate, Costar Co.) in a volume of 100 μl for each well, and incubated at 4° C. for 24 hours to immobilize GP IIb/IIIa. The microplate was washed twice with a washing solution (TBS containing 0.01% of Tween 20). Thereafter TBS containing 3.5% of BSA was added to each well in a volume of 200 μl and blocking was carried out for about an hour at room temperature. The microplate was further washed twice with the washing solution, and successively a mixture of the specimen drug and the biotinylated fibrinogen was added in a volume of 100 μl/well and incubated for 24 hours at room temperature. The microplate was thereafter washed five times, and peroxidase-labeled streptoavidin (a kit of Amersham Co.) which was previously diluted 3000 times with TBS was added in a volume of 100 μl/well and incubated for about 30 minutes at room temperature. After washing the microplate 5 times, a 0.05M phosphate-citrate buffer solution (pH5) containing o-phenylenediamine(0.4 mg/ml) (manufactured by Sigma Co.) and H2 O2 (0.012%) was added in a volume of 200 μl/well to develop color for 20-40 minutes. The reaction was stopped by addition of 0.3M sulfuric acid in a volume of 50 μl/well and absorbance at 490 nm was measured with Immunoreader NJ-200 (manufactured by Inter Med Co.). […]

Test [3] concerns guinea pig platelets (platelet-rich plasma). Briefly: In vitro inhibition of platelet aggregation in guinea pig (ADP-induced, PRP). The test is classed as cell-based. As to conditions: Cavia porcellus, ADP final concentration 5 μM, read-out: Platelet aggregation inhibitory activity in guinea pig, IC50. On the procedure: In vitro experiment of platelet aggregation inhibition
1. Inhibition of platelet aggregation in Guinea pig
Blood of male guinea pig was collected with an injection syringe which contains 3.8 % sodium citrate as an anticoagulant in a ratio of 1 volume to 9 volumes of the blood. Successively, the collected blood mixture was subjected to centrifugation at 120×g for 15 minutes at room temperature to obtain platelet-rich plasma (PRP). An aliquot of PRP was further subjected to centrifugation at 1,200×g for 15 minutes to obtain platelet-poor plasma (PPP). Numbers of the platelet in PRP were measured with an automatic platelet counter: Sysmex PL-100 (manufactured by Toa Iyodenshi Co.) and PRP was diluted with PPP so as to adjust a platelet concentration to be about 300,000 particles/ μl. Platelet aggregation was measured by the following procedure with a 6 channel aggregometer: HEMA TRACER 1 (manufactured by NKK Co.).
After incubation of 240 μl of PRP at 37° C. for 2 minutes, 30 μl of the solvent of specimen as a control or of the specimen in various concentrations was added to PRP. Further 2 minutes later, 30 μl of adenosine diphosphate (final concentration: 5μM) was added to induce platelet aggregation. An inhibition percentage was obtained by comparing the maximum aggregation of the specimen drug group with that of control. […]

The record followed here is patent publication US5719145A, “Amidine derivatives and platelet aggregation inhibitor containing the same” (Mitsui Toatsu Chemicals, Inc., priority 1996, dated 1998).

pIC50: −log10 of the molar value. Structures can show the parent of a compound that is named as a salt.

T1 sequence (P08514 32-887 limits assumed): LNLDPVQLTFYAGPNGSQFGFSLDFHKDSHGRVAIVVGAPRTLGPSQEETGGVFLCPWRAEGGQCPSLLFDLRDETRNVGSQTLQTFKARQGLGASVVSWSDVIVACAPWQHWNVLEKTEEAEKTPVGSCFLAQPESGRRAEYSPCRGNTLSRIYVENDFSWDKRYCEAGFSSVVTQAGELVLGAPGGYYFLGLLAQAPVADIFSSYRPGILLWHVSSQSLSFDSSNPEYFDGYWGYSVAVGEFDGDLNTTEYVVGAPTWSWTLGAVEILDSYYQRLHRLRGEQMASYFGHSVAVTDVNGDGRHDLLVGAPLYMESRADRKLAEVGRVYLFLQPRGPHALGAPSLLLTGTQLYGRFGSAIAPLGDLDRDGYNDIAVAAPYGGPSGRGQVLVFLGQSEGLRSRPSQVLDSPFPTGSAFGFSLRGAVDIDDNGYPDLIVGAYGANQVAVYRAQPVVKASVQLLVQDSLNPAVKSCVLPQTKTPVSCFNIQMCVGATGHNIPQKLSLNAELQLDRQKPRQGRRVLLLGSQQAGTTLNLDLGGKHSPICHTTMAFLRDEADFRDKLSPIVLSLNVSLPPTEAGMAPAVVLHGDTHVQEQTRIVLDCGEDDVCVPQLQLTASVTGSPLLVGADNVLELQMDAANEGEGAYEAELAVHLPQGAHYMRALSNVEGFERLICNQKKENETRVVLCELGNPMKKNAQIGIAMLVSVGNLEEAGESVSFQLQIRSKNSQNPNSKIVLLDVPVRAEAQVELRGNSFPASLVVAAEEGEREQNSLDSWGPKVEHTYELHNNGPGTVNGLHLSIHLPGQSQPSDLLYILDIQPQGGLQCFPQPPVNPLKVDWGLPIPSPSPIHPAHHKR
T1 sequence (P08514 891-1039 partner limits assumed): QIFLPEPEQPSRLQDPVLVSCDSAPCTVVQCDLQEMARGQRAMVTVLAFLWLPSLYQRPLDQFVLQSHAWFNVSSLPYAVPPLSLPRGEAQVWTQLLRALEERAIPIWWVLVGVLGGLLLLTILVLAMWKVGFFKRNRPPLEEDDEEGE
T1 sequence (P05106 27-788): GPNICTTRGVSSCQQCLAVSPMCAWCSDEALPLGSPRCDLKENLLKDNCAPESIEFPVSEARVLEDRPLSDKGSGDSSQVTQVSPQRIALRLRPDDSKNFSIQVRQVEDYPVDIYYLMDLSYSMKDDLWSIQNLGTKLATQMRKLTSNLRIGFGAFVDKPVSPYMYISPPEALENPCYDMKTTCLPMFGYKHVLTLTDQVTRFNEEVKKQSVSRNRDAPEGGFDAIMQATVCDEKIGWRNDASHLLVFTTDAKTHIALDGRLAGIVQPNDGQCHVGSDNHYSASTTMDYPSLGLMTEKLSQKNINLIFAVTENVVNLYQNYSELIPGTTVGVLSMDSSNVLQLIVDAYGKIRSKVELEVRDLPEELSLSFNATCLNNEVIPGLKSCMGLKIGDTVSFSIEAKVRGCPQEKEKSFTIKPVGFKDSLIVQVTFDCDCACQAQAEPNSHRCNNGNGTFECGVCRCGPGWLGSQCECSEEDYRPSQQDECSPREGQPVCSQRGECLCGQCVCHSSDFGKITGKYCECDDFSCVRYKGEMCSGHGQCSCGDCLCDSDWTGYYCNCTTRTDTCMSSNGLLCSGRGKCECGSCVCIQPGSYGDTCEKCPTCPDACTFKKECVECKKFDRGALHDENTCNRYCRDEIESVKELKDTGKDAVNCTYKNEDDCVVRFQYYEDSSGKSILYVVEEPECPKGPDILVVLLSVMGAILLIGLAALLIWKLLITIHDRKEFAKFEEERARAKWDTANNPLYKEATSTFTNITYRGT

Take `N=C(c1ccc(C(=O)Nc2ccc3c(c2)CC(CC(=O)O)CO3)cc1)N1CCOCC1` (single isomer, unassigned; (-)) [Example 52, (-)-6-[[4-(morpholinoiminomethyl)benzoyl]amino]chroman-3-acetic acid hydrochloride]: the pIC50 in test [1] is 7.46; in test [2], 9.89; in test [3], 6.96.
`N=C(c1ccc(C(=O)Nc2ccc3c(c2)CC(CC(=O)O)CC3)cc1)N1CCCCC1` (centres unmarked) [Example 18, 7-[[4-(piperidinoiminomethyl)benzoyl]amino]-1,2,3,4-tetrahydronaphthalene-2-acetic acid hydrochloride]: the pIC50 was 6.85 in test [1] and 9.59 in test [2].
For the molecule `N=C(c1ccc(C(=O)Nc2ccc3c(c2)CC(CC(=O)O)CC3)cc1)N1CCSCC1` (centres unmarked) [Example 13, 7-[[4-(thiomorpholinoiminomethyl)benzoyl]amino]-1,2,3,4-tetrahydronaphthalene-2-acetic acid hydrochloride], the pIC50 in test [1] is 7.22; in test [2], 9.55; in test [3], 6.77.
The like results for `N=C(c1ccc(C(=O)Nc2ccc3c(c2)CC(CC(=O)O)CC3)cc1)N1CCOCC1` (centres unmarked) [Example 2, 7-[[4-(morpholinoiminomethyl)benzoyl]amino]-1,2,3,4-tetrahydronaphthalene-2-acetic acid hydrochloride] were, in that order, 7.17, 9.89 and 6.85.
The like results for `C#CCNC(=N)c1ccc(C(=O)Nc2ccc3c(c2)CC(CC(=O)O)CO3)cc1` (single isomer, unassigned; (-)) [Example 50, (-)-6-[[4-(N^2-propargylamidino)benzoyl]amino]chroman-3-acetic acid hydrochloride] were, in that order, 7.36, 9.66 and 6.70.
As for `C#CCNC(=N)c1ccc(C(=O)Nc2ccc3c(c2)CC(CC(=O)O)CC3)cc1` (single isomer, unassigned; (-)) [Example 46, (-)-7-[[4-(N^2-propargylamidino)benzoyl]amino]-1,2,3,4-tetrahydronaphthalene-2-acetic acid hydrochloride], the pIC50 was 7.54 in test [1], 9.96 in test [2] and 6.82 in test [3].
The like results for `N=C(c1ccc(C(=O)Nc2ccc3c(c2)CC(CC(=O)O)CC3)cc1)N1CCOCC1` (single isomer, unassigned; (-)) [Example 48, (-)-7-[[4-(morpholinoiminomethyl)benzoyl]amino]-1,2,3,4-tetrahydronaphthalene-2-acetic acid hydrochloride] were, in that order, 7.48, 10.15 and 7.16.
For the molecule `C#CCN=C(N)c1ccc(C(=O)Nc2ccc3c(c2)CC(CC(=O)O)CC3)cc1` (centres unmarked) [Example 25, 7-[[4-(N^2-propargylamidino)benzoyl]amino]-1,2,3,4-tetrahydronaphthalene-2-acetic acid hydrochloride], the pIC50 is 7.00 in test [1], 9.74 in test [2] and 6.55 in test [3].
